Laboratory results: ChEMBL document CHEMBL4828758, “Elucidation of Distinct Modular Assemblies of Smoothened Receptor by Bitopic Ligand Measurement” (J Med Chem, 2021)
Calls of active or inactive are those of the source. No cut-off for these calls is given here.

Experiments:
Type in all cases: functional, cell-based
[1] = biological target: Protein smoothened (Mus musculus) (UniProt P56726); experiment: Agonist activity at SMO in mouse NIH3T3 cells preincubated for 2 hrs followed by SAG stimulation and measured after 24 hrs in presence of GDC0449 by Bright-Glo luciferase assay; conditions: filed as agonist, time 26.0 hrs
[2] = biological target: Protein smoothened (Mus musculus) (UniProt P56726); experiment: Agonist activity at SMO in mouse NIH3T3 cells assessed as induction of SMO accumulation in primary cilia incubated for 12 hrs by AlexaFluor 488/ DAPI staining based immunofluorescence method; conditions: filed as agonist
[3] = biological target: Protein smoothened (Mus musculus) (UniProt P56726); experiment: Antagonist activity at SMO in mouse NIH3T3 cells preincubated for 2 hrs followed by SAG stimulation and measured after 24 hrs in presence of GDC0449 by Bright-Glo luciferase assay; conditions: time 26.0 hrs
[4] = biological target: Protein smoothened (Mus musculus) (UniProt P56726); experiment: Agonist activity at SMO in mouse NIH3T3 cells assessed as induction of SMO accumulation in primary cilia incubated for 12 hrs by fluorescence method; conditions: filed as agonist
[5] = biological target: Protein smoothened (Mus musculus) (UniProt P56726); experiment: Antagonist activity at SMO in mouse NIH3T3 cells preincubated for 2 hrs followed by ShhN stimulation and measured after 24 hrs in presence of GDC0449 by Bright-Glo luciferase assay; conditions: filed as antagonist, time 26.0 hrs
[6] = biological target: Protein smoothened (Mus musculus) (UniProt P56726); experiment: Agonist activity at SMO in mouse NIH3T3 cells assessed as fluorescent intensity of ciliary SMO incubated for 12 hrs by fluorescence method; conditions: filed as agonist
[7] = biological target: Protein smoothened (Mus musculus) (UniProt P56726); experiment: Antagonist activity at SMO in mouse NIH3T3 cells preincubated for 2 hrs followed by SAG stimulation and measured after 24 hrs by Bright-Glo luciferase assay; conditions: time 26.0 hrs

Protein smoothened (Mus musculus), sequence (P56726 whole entry): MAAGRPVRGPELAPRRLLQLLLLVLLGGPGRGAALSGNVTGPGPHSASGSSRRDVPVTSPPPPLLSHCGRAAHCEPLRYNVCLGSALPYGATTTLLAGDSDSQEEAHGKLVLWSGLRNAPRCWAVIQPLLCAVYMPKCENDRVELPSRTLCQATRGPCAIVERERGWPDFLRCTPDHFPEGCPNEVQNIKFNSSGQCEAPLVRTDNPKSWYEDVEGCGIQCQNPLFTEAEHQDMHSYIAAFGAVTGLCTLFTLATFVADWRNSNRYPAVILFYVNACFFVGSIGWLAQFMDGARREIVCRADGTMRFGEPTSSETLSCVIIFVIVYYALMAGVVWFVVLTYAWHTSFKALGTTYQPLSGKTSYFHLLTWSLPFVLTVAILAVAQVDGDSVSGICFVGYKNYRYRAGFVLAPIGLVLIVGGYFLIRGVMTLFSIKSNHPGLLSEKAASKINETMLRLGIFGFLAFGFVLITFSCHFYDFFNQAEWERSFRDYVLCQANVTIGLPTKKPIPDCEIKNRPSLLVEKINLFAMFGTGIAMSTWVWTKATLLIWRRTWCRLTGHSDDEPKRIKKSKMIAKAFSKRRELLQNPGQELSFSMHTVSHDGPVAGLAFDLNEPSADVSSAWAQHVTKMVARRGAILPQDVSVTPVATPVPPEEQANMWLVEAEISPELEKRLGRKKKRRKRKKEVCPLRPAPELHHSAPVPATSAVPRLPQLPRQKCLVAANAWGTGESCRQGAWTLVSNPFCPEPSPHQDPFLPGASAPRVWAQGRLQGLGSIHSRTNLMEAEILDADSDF

| Structure (SMILES) | Activity [1] | Activity [2] | Activity [3] | Activity [4] | Activity [5] | Activity [6] | Activity [7] |
| --- | --- | --- | --- | --- | --- | --- | --- |
| CC(C)CCC[C@](C)(O)[C@H]1CC[C@H]2[C@@H]3CC=C4C[C@@H](O)CC[C@]4(C)[C@H]3CC[C@@]21C | Active | Active | inactive | Active | Active | Active |  |
| CC(O)(CCCCCCOCc1cn(CCOCCS(=O)(=O)c2ccc(C(=O)Nc3ccc(Cl)c(-c4ccccn4)c3)c(Cl)c2)nn1)C1CC[C@H]2[C@@H]3CC=C4C[C@@H](O)CC[C@]4(C)[C@H]3CC[C@]12C (stereo partly drawn) |  |  |  |  |  |  | inactive |
| CC(O)(CCCCCCOCCOCc1cn(CCOCCS(=O)(=O)c2ccc(C(=O)Nc3ccc(Cl)c(-c4ccccn4)c3)c(Cl)c2)nn1)C1CC[C@H]2[C@@H]3CC=C4C[C@@H](O)CC[C@]4(C)[C@H]3CC[C@]12C (stereo partly drawn) |  |  |  |  |  |  | inactive |
